# Test results published in patent US20080200337A1, “Mixed herbicide compositions for paddy field” (Bayer CropScience, priority 2007, published 2008).
# Tests used:
# Format in all cases: in vivo
# transplanted rice [1] = assay: Phytotoxicity, flooded paddy field, treatment at 1 leaf-stage (Test Example 1)
# Description: (§1) Carrier: 5 parts by weight of acetone
# (§2) Surfactant: one part by weight of benzyloxy polyglycol ether.
# (§3) Above described carrier and surfactant are mixed with one part by weight of the active compound ((a) ingredient and (b) ingredient) and the resulting preparation is then diluted with water to obtain given amount of the test drug (the formulation).
# (§4) In a greenhouse, seeds or tubers of Echinochloa, Scirpus juncoides Roxburgh, Monochoria vaginalis Presl, annual broad-leaved weeds (Lindernia procumbens Philcox, Lindernia dubia L. Penn., Rotala indica Koehne, Elatine triandra Schk, Ammannia multiflora Roxb.), Cyperus serotinus Rottboel and Sagittaria pygmaea Miq. were inoculated in a 500 cm^2 pot filled with paddy field soil. After 2 leaf-stage of rice were transplanted, water was poured to a depth of about 3 cm. At 1.0 leaf-stage of Echinochloa oryzicola Vasing, a prescribed, diluted solution of the formulation of each active compound and each herbicidal compound in the table was separately or simultaneously applied to the surface of water. After the treatment, the water depth of 3 cm was maintained, and herbicidal effect was examined after 4 weeks. In the assessment of the herbicidal effect and the phytotoxicity, 100% refers to complete death and 0% refers to no effect or no phytotoxicity.
# Cyperus iria L. = assay: Weed control by spray treatment at 1.5 to 3.0 leaf-stage (Test Example 3); conditions: spray at 1.5 to 3.0 leaf-stage, 4 weeks later
# Description: as §1, §2, §3
# (§5) In a greenhouse, seeds of rice (var.: Nipponbare and RD23) and weeds (Echinochloa oryzicola Vasing, Echinochloa cruss-galli, Leptochloa chinensis, Cyperus difformis L., Cyperus iria L., annual broad-leaved weeds (Monochoria vaginalis Presl, Lindernia procumbens Philcox, Lindernia dubia L. Penn., Rotala indica Koehne, Elatine triandra Schk, Ammannia multiflora Roxb. and the like)) were sown in a 500 cm^2 pot filled with paddy field soil and covered with soil. Water was added to the pot (a depth of 0 cm) to be a wet condition, and each test plant was grown in the greenhouse to 1.5 to 3.0 leaf-stage, after then a prescribed, diluted solution of the formulation of each active compound and each herbicidal compound in the table were separately or simultaneously sprayed over the pots with plants. At 3 days after the treatment, the water depth of 3 cm was maintained, and 4 weeks later, herbicidal effect was then examined. In the assessment of the herbicidal effect and the phytotoxicity, 100% refers to complete death and 0% refers to no effect or no phytotoxicity.
# [2] = test system: Monochoria vaginalis Presl; assay: as above; conditions: spray at 1.5 to 3.0 leaf-stage, 4 weeks later
# Description: as §1, §2, §3, §5
# Cyperus difformis L. = assay: as above; conditions: spray at 1.5 to 3.0 leaf-stage, 4 weeks later
# Description: as §1, §2, §3, §5
# [3] = test system: Echinochloa oryzicola Vasing; assay: as above; conditions: spray at 1.5 to 3.0 leaf-stage, 4 weeks later
# Description: as §1, §2, §3, §5
# Leptochloa chinensis = assay: as above; conditions: spray at 1.5 to 3.0 leaf-stage, 4 weeks later
# Description: as §1, §2, §3, §5
# Echinochloa cruss-galli = assay: as above; conditions: spray at 1.5 to 3.0 leaf-stage, 4 weeks later
# Description: as §1, §2, §3, §5
# [4] = test system: annual broad-leaved weeds; assay: as above; conditions: spray at 1.5 to 3.0 leaf-stage, 4 weeks later
# Description: as §1, §2, §3, §5
# [5] = test system: Scirpus juncoides Roxburgh; assay: Weed control, flooded paddy field, treatment at 3 leaf-stage (Test Example 2); conditions: after 4 weeks
# Description: as §1, §2, §3
# as §4, with “Echinochloa, Cyperus difformis L.,” for “Echinochloa,”, “3.0” for “1.0”, “Echinochloa,” for “Echinochloa oryzicola Vasing,”
# [6] = test system: Monochoria vaginalis Presl; assay: as above; conditions: after 4 weeks
# Description: as §1, §2, §3
# as §4, with “Echinochloa, Cyperus difformis L.,” for “Echinochloa,”, “3.0” for “1.0”, “Echinochloa,” for “Echinochloa oryzicola Vasing,”
# Sagittaria pygmaea Miq. [7] = assay: as above; conditions: after 4 weeks
# Description: as §1, §2, §3
# as §4, with “Echinochloa, Cyperus difformis L.,” for “Echinochloa,”, “3.0” for “1.0”, “Echinochloa,” for “Echinochloa oryzicola Vasing,”
# [8] = test system: Cyperus serotinus Rottboel; assay: as above; conditions: after 4 weeks
# Description: as §1, §2, §3
# as §4, with “Echinochloa, Cyperus difformis L.,” for “Echinochloa,”, “3.0” for “1.0”, “Echinochloa,” for “Echinochloa oryzicola Vasing,”
# [9] = test system: annual broad-leaved weeds; assay: as above; conditions: after 4 weeks
# Description: as §1, §2, §3
# as §4, with “Echinochloa, Cyperus difformis L.,” for “Echinochloa,”, “3.0” for “1.0”, “Echinochloa,” for “Echinochloa oryzicola Vasing,”
# Echinochloa [10] = assay: as above; conditions: after 4 weeks
# Description: as §1, §2, §3
# as §4, with “Echinochloa, Cyperus difformis L.,” for “Echinochloa,”, “3.0” for “1.0”, “Echinochloa,” for “Echinochloa oryzicola Vasing,”
# transplanted rice [11] = assay: Phytotoxicity, flooded paddy field, treatment at 3 leaf-stage (Test Example 2)
# Description: as §1, §2, §3
# as §4, with “Echinochloa, Cyperus difformis L.,” for “Echinochloa,”, “3.0” for “1.0”, “Echinochloa,” for “Echinochloa oryzicola Vasing,”
# [12] = test system: submerged direct sown paddy (Nipponbare); assay: Phytotoxicity, spray treatment at 1.5 to 3.0 leaf-stage (Test Example 3)
# Description: as §1, §2, §3, §5
# [13] = test system: submerged direct sown paddy (RD-23); assay: as above
# Description: as §1, §2, §3, §5
# [14] = test system: Scirpus juncoides Roxburgh; assay: Weed control, flooded paddy field, treatment at 1 leaf-stage (Test Example 1); conditions: after 4 weeks
# Description: as §1, §2, §3, §4
# [15] = test system: Monochoria vaginalis Presl; assay: as above; conditions: after 4 weeks
# Description: as §1, §2, §3, §4
# Sagittaria pygmaea Miq. [16] = assay: as above; conditions: after 4 weeks
# Description: as §1, §2, §3, §4
# [17] = test system: Cyperus serotinus Rottboel; assay: as above; conditions: after 4 weeks
# Description: as §1, §2, §3, §4
# [18] = test system: annual broad-leaved weeds; assay: as above; conditions: after 4 weeks
# Description: as §1, §2, §3, §4
# Echinochloa [19] = assay: as above; conditions: after 4 weeks
# Description: as §1, §2, §3, §4
compound,measurement,setting,value
COc1nc(OC)nc(C(O)c2cccc(F)c2N(C)S(=O)(=O)C(F)F)n1 (stereo not drawn) [(a-3)],Phytotoxicity (%) ORYSP,"transplanted rice [1]; 30 g ai/ha, treatment at 1 leaf-stage, after 4 weeks",0%
same,Phytotoxicity (%) ORYSP,"transplanted rice [1]; 50 g ai/ha, treatment at 1 leaf-stage, after 4 weeks",0%
same,Herbicidal effect (%) CYPIR,Cyperus iria L.; 30 g ai/ha,100%
same,Herbicidal effect (%) CYPIR,Cyperus iria L.; 50 g ai/ha,100%
same,Herbicidal effect (%) MOOVP,[2]; 30 g ai/ha,65%
same,Herbicidal effect (%) MOOVP,[2]; 50 g ai/ha,85%
same,Herbicidal effect (%) CYPDI,Cyperus difformis L.; 30 g ai/ha,100%
same,Herbicidal effect (%) CYPDI,Cyperus difformis L.; 50 g ai/ha,100%
same,Herbicidal effect (%) ECHOR,[3]; 30 g ai/ha,100%
same,Herbicidal effect (%) ECHOR,[3]; 50 g ai/ha,100%
same,Herbicidal effect (%) LEFCH,Leptochloa chinensis; 30 g ai/ha,65%
same,Herbicidal effect (%) LEFCH,Leptochloa chinensis; 50 g ai/ha,80%
same,Herbicidal effect (%) ECHCG,Echinochloa cruss-galli; 30 g ai/ha,100%
same,Herbicidal effect (%) ECHCG,Echinochloa cruss-galli; 50 g ai/ha,100%
same,Herbicidal effect (%) BBBBB,[4]; 30 g ai/ha,65%
same,Herbicidal effect (%) BBBBB,[4]; 50 g ai/ha,85%
same,Herbicidal effect (%) SCPSS,[5]; 30 g ai/ha,60%
same,Herbicidal effect (%) SCPSS,[5]; 50 g ai/ha,60%
same,Herbicidal effect (%) MOOVP,[6]; 30 g ai/ha,10%
same,Herbicidal effect (%) MOOVP,[6]; 50 g ai/ha,13%
same,Herbicidal effect (%) SAGPY,Sagittaria pygmaea Miq. [7]; 30 g ai/ha,70%
same,Herbicidal effect (%) SAGPY,Sagittaria pygmaea Miq. [7]; 50 g ai/ha,70%
same,Herbicidal effect (%) CYPSEE,[8]; 30 g ai/ha,90%
same,Herbicidal effect (%) CYPSEE,[8]; 50 g ai/ha,90%
same,Herbicidal effect (%) BBBBB,[9]; 30 g ai/ha,3%
same,Herbicidal effect (%) BBBBB,[9]; 50 g ai/ha,8%
same,Herbicidal effect (%) ECHSS,Echinochloa [10]; 30 g ai/ha,90%
same,Herbicidal effect (%) ECHSS,Echinochloa [10]; 50 g ai/ha,90%
same,Phytotoxicity (%) ORYSP,"transplanted rice [11]; 30 g ai/ha, treatment at 3 leaf-stage, after 4 weeks",0%
same,Phytotoxicity (%) ORYSP,"transplanted rice [11]; 50 g ai/ha, treatment at 3 leaf-stage, after 4 weeks",0%
same,Phytotoxicity (%) ORYSW*^1,"[12]; 30 g ai/ha, spray at 1.5 to 3.0 leaf-stage, 4 weeks later",0%
same,Phytotoxicity (%) ORYSW*^1,"[12]; 50 g ai/ha, spray at 1.5 to 3.0 leaf-stage, 4 weeks later",10%
same,Phytotoxicity (%) ORYSW*^2,"[13]; 30 g ai/ha, spray at 1.5 to 3.0 leaf-stage, 4 weeks later, RD-23",0%
same,Phytotoxicity (%) ORYSW*^2,"[13]; 50 g ai/ha, spray at 1.5 to 3.0 leaf-stage, 4 weeks later, RD-23",0%
same,Herbicidal effect (%) SCPSS,[14]; 30 g ai/ha,60%
same,Herbicidal effect (%) SCPSS,[14]; 50 g ai/ha,60%
same,Herbicidal effect (%) MOOVP,[15]; 30 g ai/ha,20%
same,Herbicidal effect (%) MOOVP,[15]; 50 g ai/ha,40%
same,Herbicidal effect (%) SAGPY,Sagittaria pygmaea Miq. [16]; 30 g ai/ha,70%
same,Herbicidal effect (%) SAGPY,Sagittaria pygmaea Miq. [16]; 50 g ai/ha,90%
same,Herbicidal effect (%) CYPSEE,[17]; 30 g ai/ha,90%
same,Herbicidal effect (%) CYPSEE,[17]; 50 g ai/ha,90%
same,Herbicidal effect (%) BBBBB,[18]; 30 g ai/ha,20%
same,Herbicidal effect (%) BBBBB,[18]; 50 g ai/ha,35%
same,Herbicidal effect (%) ECHSS,Echinochloa [19]; 30 g ai/ha,90%
same,Herbicidal effect (%) ECHSS,Echinochloa [19]; 50 g ai/ha,90%
"CCOc1ccccc1OS(=O)(=O)NC(=O)Nc1nc(OC)cc(OC)n1 [(b-5), ethoxysulfuron]",Phytotoxicity (%) ORYSP,"transplanted rice [1]; rice, in vivo, 4 weeks",10%
same,Herbicidal effect (%) CYPIR,Cyperus iria L.; 20 g ai/ha,100%
same,Herbicidal effect (%) MOOVP,[2]; 20 g ai/ha,95%
same,Herbicidal effect (%) CYPDI,Cyperus difformis L.; 20 g ai/ha,100%
same,Herbicidal effect (%) ECHOR,[3]; 20 g ai/ha,15%
same,Herbicidal effect (%) LEFCH,Leptochloa chinensis; 20 g ai/ha,15%
same,Herbicidal effect (%) ECHCG,Echinochloa cruss-galli; 20 g ai/ha,10%
same,Herbicidal effect (%) BBBBB,[4]; 20 g ai/ha,90%
same,Herbicidal effect (%) SCPSS,[5]; 20 g ai/ha,90%
same,Herbicidal effect (%) MOOVP,[6]; 20 g ai/ha,80%
same,Herbicidal effect (%) SAGPY,Sagittaria pygmaea Miq. [7]; 20 g ai/ha,60%
same,Herbicidal effect (%) CYPSEE,[8]; 20 g ai/ha,20%
same,Herbicidal effect (%) BBBBB,[9]; 20 g ai/ha,60%
same,Herbicidal effect (%) ECHSS,Echinochloa [10]; 20 g ai/ha,50%
same,Phytotoxicity (%) ORYSP,"transplanted rice [11]; rice, in vivo, 4 weeks",0%
same,Phytotoxicity (%) ORYSW*^1,"[12]; rice, in vivo, 4 weeks",10%
same,Phytotoxicity (%) ORYSW*^2,"[13]; RD-23, rice, in vivo, 4 weeks",10%
same,Herbicidal effect (%) SCPSS,[14]; 20 g ai/ha,95%
same,Herbicidal effect (%) MOOVP,[15]; 20 g ai/ha,95%
same,Herbicidal effect (%) SAGPY,Sagittaria pygmaea Miq. [16]; 20 g ai/ha,90%
same,Herbicidal effect (%) CYPSEE,[17]; 20 g ai/ha,60%
same,Herbicidal effect (%) BBBBB,[18]; 20 g ai/ha,95%
same,Herbicidal effect (%) ECHSS,Echinochloa [19]; 20 g ai/ha,30%
